Where a name gives a salt, the structure may show the parent alone. Bounds are passed on as bounds.

One assay has as its target T1, NMDA receptor (Rattus norvegicus, UniProt P35439).
T1 construct: from tissue; host or cells: rat cortical slice
Kind of assay: antagonism of responses to NMDA, rat cortical slice preparation. It is filed as cell-based.
Conditions: not given
The protocol: The effects of compounds of the invention on responses to the agonists NMDA, kainate and quisqualate were assessed using the rat cortical slice preparation as described by Wong et al., Proc. Natl. Acad. Sci. USA, 1986, 83, 7104. The apparent equilibrium constants (Kb) were calculated from the righthand shift in the agonist concentration-response curve.
For the molecule `O=C(O)c1cc(O)c2ccc(Br)cc2n1` [7-bromo-4-oxo-1,4-dihydroquinoline-2-carboxylic acid], the Kb is < 100 µM.

The same assay, now with this note: rat cortical slice; apparent equilibrium constant (Kb) calculated from righthand shift in the agonist concentration-response curve; read-out: NMDA antagonist activity at concentrations (Kb).
With `O=C(NOCc1ccccc1)c1cc(=O)c2c(Cl)cc(Cl)cc2[nH]1` [5,7-Dichloro-4-oxo-1,4-dihydroquinoline-2-(O-benzyl)hydroxamic acid], the Kb was < 100 µM.

As for `O=C(NO)c1cc(=O)c2c(Cl)cc(Cl)cc2[nH]1` [5,7-Dichloro-4-oxo-1,4-dihydroquinoline-2-hydroxamic acid potassium salt.], the Kb was < 100 µM.

For `Cc1cc(C)c2c(O)cc(C(=O)O)nc2c1` [5,7-Dimethyl-4-oxo-1,4-dihydroquinoline-2-carboxylic acid], the Kb is < 100 µM.

Take `O=C(O)c1cc(O)c2c(Br)cc(Br)cc2n1` [5,7-dibromo-4-oxo-1,4-dihydroquinoline-2-carboxylic acid]: the Kb is < 100 µM.

For the molecule `O=C(O)c1cc(O)c2c(Cl)cc(Cl)cc2n1` [5,7-dichloro-4-oxo-1,4-dihydroquinoline-2-carboxylic acid], the Kb was < 100 µM.

Take `CCc1cc(Br)c2c(O)cc(C(=O)O)nc2c1` [5-Bromo-7-ethyl-4-oxo-1,4-dihydroquinoline-2-carboxylic acid]: the Kb is < 100 µM.

As to `Cc1cc(Br)c2c(O)cc(C(=O)O)nc2c1` [5-Bromo-7-methyl-4-oxo-1,4-dihydroquinoline-2-carboxylic acid], the Kb was < 100 µM.

Turning to `CCc1cc(Cl)c2c(O)cc(C(=O)O)nc2c1` [5-Chloro-7-ethyl-4-oxo-1,4-dihydroquinoline-2-carboxylic acid], the Kb is < 100 µM.

For `O=C(O)c1cc(O)c2c(Cl)cc(I)cc2n1` [5-Chloro-7-iodo-4-oxo-1,4-dihydroquinoline-2-carboxylic acid], the Kb is < 100 µM.

For `CCc1cccc2nc(C(=O)O)cc(O)c12` [5-Ethyl-4-oxo-1,4-dihydroquinoline-2-carboxylic acid], the Kb was < 100 µM.

As to `O=C(O)c1cc(=O)c2c(F)cccc2[nH]1` [5-Fluoro-4-oxo-1,4-dihydroquinoline-2-carboxylic acid], the Kb is < 100 µM.

As to `O=C(O)c1cc(O)c2c(I)cccc2n1` [5-Iodo-4-oxo-1,4-dihydroquinoline-2-carboxylic acid], the Kb was < 100 µM.

In the case of `Cc1cc(I)c2c(O)cc(C(=O)O)nc2c1` [5-Iodo-7-methyl-4-oxo-1,4-dihydroquinoline-2-carboxylic acid], the Kb is < 100 µM.

In the case of `O=C(O)c1cc(=O)c2c(C(F)(F)F)cccc2[nH]1` [5-Trifluoromethyl-4-oxo-1,4-dihydroquinoline-2-carboxylic acid], the Kb is < 100 µM.

Take `O=C(O)c1cc(=O)c2c(Br)cccc2[nH]1` [5-bromo-4-oxo-1,4-dihydroquinoline-2-carboxylic acid]: the Kb is < 100 µM.

With `O=C(O)c1cc(O)c2c(Cl)cccc2n1` [5-chloro-4-oxo-1,4-dihydroquinoline-2-carboxylic acid], the Kb was < 100 µM.

`Cc1cccc2nc(C(=O)O)cc(O)c12` [5-methyl-4-oxo-1,4-dihydroquinoline-2-carboxylic acid]: the Kb was < 100 µM.

In the case of `O=C(O)c1cc(=O)c2cc(F)ccc2[nH]1` [6-fluoro-4-oxo-1,4-dihydroquinoline-2-carboxylic acid], the Kb was < 100 µM.

On to `CCc1cc(Br)cc2nc(C(=O)O)cc(O)c12` [7-Bromo-5-ethyl-4-oxo-1,4-dihydroquinoline-2-carboxylic acid], for which the Kb is < 100 µM.

In the case of `Cc1cc(Br)cc2nc(C(=O)O)cc(O)c12` [7-Bromo-5-methyl-4-oxo-1,4-dihydroquinoline-2-carboxylic acid], the Kb is < 100 µM.

As for `CCc1cc(Cl)cc2nc(C(=O)O)cc(O)c12` [7-Chloro-5-ethyl-4-oxo-1,4-dihydroquinoline-2-carboxylic acid], the Kb was < 100 µM.

Turning to `O=C(O)c1cc(O)c2c(I)cc(Cl)cc2n1` [7-Chloro-5-iodo-4-oxo-1,4-dihydroquinoline-2-carboxylic acid], the Kb was < 100 µM.

For the molecule `Cc1cc(I)cc2nc(C(=O)O)cc(O)c12` [7-Iodo-5-methyl-4-oxo-1,4-dihydroquinoline-2-carboxylic acid], the Kb is < 100 µM.

`O=C(O)c1cc(O)c2ccc(Cl)cc2n1` [7-chloro-4-oxo-1,4-dihydroquinoline-2-carboxylic acid]: the Kb was < 100 µM.

With `O=C(O)c1cc(O)c2ccc(F)cc2n1` [7-fluoro-4-oxo-1,4-dihydroquinoline-2-carboxylic acid], the Kb is < 100 µM.

Regarding `O=C(O)c1cc(O)c2ccc(I)cc2n1` [7-iodo-4-oxo-1,4-dihydroquinoline-2-carboxylic acid], the Kb is < 100 µM.

With `Cc1ccc2c(O)cc(C(=O)O)nc2c1` [7-methyl-4-oxo-1,4-dihydroquinoline-2-carboxylic acid], the Kb was < 100 µM.

For `O=C(O)c1cc(=O)c2ccc([N+](=O)[O-])cc2[nH]1` [7-nitro-4-oxo-1,4-dihydroquinoline-2-carboxylic acid], the Kb was < 100 µM.

Another assay deals with excitatory amino acid receptors.
Assay: not given
Conditions: statement in words; R.H. Evans et al., Br. J. Pharmac., 1987, 91, 531; cited from earlier work.
In the case of `O=C(O)c1cc(=O)c2ccccc2[nH]1` [Kynurenic acid, 4-oxo-1,4-dihydroquinoline-2-carboxylic acid], the “antagonist of excitatory amino acid receptors” value was “weak and non-selective antagonist”.

Source of the values: patent EP0303387B1, “Kynurenic acid derivatives useful in the treatment of neurodegenerative disorders” (MERCK SHARP & DOHME LTD., priority 1987, dated 1989).
